Converted amounts (≈) assume the structure as drawn. Like-named read-outs stand apart in the source and are kept apart here.
Assays:
Test in all cases: Bacterial susceptibility testing, MIC by broth microdilution (CLSI)
Type in all cases: cell-based
P. aeruginosa 209 PAO1 = conditions: Pseudomonas aeruginosa
Description: (§1) Minimal inhibitory concentrations (MIC) were determined by the broth microdilution method in accordance with the Clinical and Laboratory Standards Institute (CLSI) guidelines. In brief, organism suspensions were adjusted to a final inoculum between 3×10^5 and 7×10^5 colony-forming units (CFU)/mL. Drug dilutions and inocula were made in sterile, cation adjusted Mueller-Hinton Broth (Beckton Dickinson). In wells, an inoculum volume of 100 μL was mixed to 2 μL of DMSO with 2-fold serial dilutions of drug. All inoculated microdilution trays were incubated in ambient air at 35° C. for 18-24 h. Following incubation, the lowest concentration of the drug that prevented visible growth (OD600 nm<0.05) was recorded as the MIC. Performance of the assay was monitored by the use of laboratory quality-control strains and compounds with defined MIC spectrum, in accordance with CLSI guidelines.

E. coli ATCC25922 = conditions: Escherichia coli
Description: as §1

K. pneumoniae ATCC13883 = conditions: Klebsiella pneumoniae
Description: as §1

P. aeruginosa ATCC27835 = conditions: Pseudomonas aeruginosa
Description: as §1

[1] = PAO1, broth microdilution, 35° C., 18-24 h, read-out: MIC P. aeruginosa 209 PAO1
[2] = ATCC25922, broth microdilution, 35° C., 18-24 h, read-out: MIC E. coli ATCC25922
[3] = ATCC13883, broth microdilution, 35° C., 18-24 h, read-out: MIC K. pneumoniae ATCC13883
[4] = ATCC27835, broth microdilution, 35° C., 18-24 h, read-out: MIC P. aeruginosa ATCC27835

Row | Structure (SMILES) | MIC (P. aeruginosa 209 PAO1; [1]) [µg/mL] | MIC (E. coli ATCC25922; [2]) [µg/mL] | MIC (K. pneumoniae ATCC13883; [3]) [µg/mL] | MIC (P. aeruginosa ATCC27835; [4]) [µg/mL] | MIC (P. aeruginosa 209 PAO1; PAO1, read-out: MIC P. aeruginosa 209 PAO1) [µg/mL] | MIC (E. coli ATCC25922; ATCC25922, read-out: MIC E. coli ATCC25922) [µg/mL] | MIC (K. pneumoniae ATCC13883; ATCC13883, read-out: MIC K. pneumoniae ATCC13883) [µg/mL] | MIC (P. aeruginosa ATCC27835; ATCC27835, read-out: MIC P. aeruginosa ATCC27835) [µg/mL]
1 | C[C@H](O)c1nccn1[C@@H](/C=C/c1ccc(-c2ccc(O[C@H]3C[C@@H]3N)cc2)cc1)CO (racemic) [Compound 13, (S,E)-4-(4′-((trans)-2-aminocyclopropoxy)-[1,1′-biphenyl]-4-yl)-2-(2-((S)-1-hydroxyethyl)-1H-imidazol-1-yl)but-3-en-1-ol] | 2 (≈ 4.93 µM) | 4 (≈ 9.86 µM) | 4 (≈ 9.86 µM) | 16 (≈ 39.5 µM) |  |  |  | 
2 | C[C@H](O)c1nccn1[C@@H](/C=C/c1ccc(-c2ccc(C3CC(CN4CC(S(C)(=O)=O)C4)C3)cc2)cc1)CO (stereo partly drawn) [Compound 58, (S,E)-2-(2-((S)-1-hydroxyethyl)-1H-imidazol-1-yl)-4-(4′-(3-((3-(methylsulfonyl)azetidin-1-yl)methyl)cyclobutyl)-[1,1′-biphenyl]-4-yl)but-3-en-1-ol] | 4 (≈ 7.47 µM) | 1 (≈ 1.87 µM) | 2 (≈ 3.73 µM) | 8 (≈ 14.9 µM) |  |  |  | 
3 | C[C@H](O)c1nccn1[C@@H](/C=C/c1ccc(-c2ccc([C@H]3C[C@H](NC(=O)CN(C)C)C3)cc2)cc1)CO [Compound 66, 2-(dimethylamino)-N-((1S,3r)-3-(4′-((S,E)-4-hydroxy-3-(2-((S)-1-hydroxyethyl)-1H-imidazol-1-yl)but-1-en-1-yl)-[1,1′-biphenyl]-4-yl)cyclobutyl)acetamide] |  |  |  |  | 4 (≈ 8.19 µM) | 4 (≈ 8.19 µM) | 8 (≈ 16.4 µM) | 4 (≈ 8.19 µM)
4 | C[C@H](O)c1nccn1[C@@H](/C=C/c1ccc(-c2ccc(C3CC(C(=O)NCCO)C3)cc2)cc1)CO (stereo partly drawn) [Compound 49, 3-(4′-((S,E)-4-hydroxy-3-(2-((S)-1-hydroxyethyl)-1H-imidazol-1-yl)but-1-en-1-yl)-[1,1′-biphenyl]-4-yl)-N-(2-hydroxyethyl)cyclobutane-1-carboxamide] | 2 (≈ 4.21 µM) | 4 (≈ 8.41 µM) | 4 (≈ 8.41 µM) | 2 (≈ 4.21 µM) |  |  |  | 
5 | C[C@H](O)c1nccn1[C@@H](/C=C/c1ccc(-c2ccc(O[C@@H]3CCC[C@H]3O)cc2)cc1)CO [Compound 73, (1R,2R)-2-((4′-((S,E)-4-hydroxy-3-(2-((S)-1-hydroxyethyl)-1H-imidazol-1-yl)but-1-en-1-yl)-[1,1′-biphenyl]-4-yl)oxy)cyclopentan-1-ol] | 2 (≈ 4.6 µM) | 0.5 (≈ 1.15 µM) | 1 (≈ 2.3 µM) | 4 (≈ 9.21 µM) |  |  |  | 

The next lines start with results.

Row | MIC (P. aeruginosa 209 PAO1; [1]) [µg/mL] | MIC (E. coli ATCC25922; [2]) [µg/mL] | MIC (K. pneumoniae ATCC13883; [3]) [µg/mL] | MIC (P. aeruginosa ATCC27835; [4]) [µg/mL] | Structure (SMILES) | MIC (P. aeruginosa 209 PAO1; PAO1, read-out: MIC P. aeruginosa 209 PAO1) [µg/mL] | MIC (E. coli ATCC25922; ATCC25922, read-out: MIC E. coli ATCC25922) [µg/mL] | MIC (K. pneumoniae ATCC13883; ATCC13883, read-out: MIC K. pneumoniae ATCC13883) [µg/mL] | MIC (P. aeruginosa ATCC27835; ATCC27835, read-out: MIC P. aeruginosa ATCC27835) [µg/mL]
6 | 2 (≈ 4.48 µM) | 0.5 (≈ 1.12 µM) | 1 (≈ 2.24 µM) | 2 (≈ 4.48 µM) | COC(=O)C1CC(c2ccc(-c3ccc(/C=C/[C@@H](CO)n4ccnc4[C@H](C)O)cc3)cc2)C1 (stereo partly drawn) [Compound 67, methyl 3-(4′-((S,E)-4-hydroxy-3-(2-((S)-1-hydroxyethyl)-1H-imidazol-1-yl)but-1-en-1-yl)-[1,1′-biphenyl]-4-yl)cyclobutane-1-carboxylate] |  |  |  | 
7 | 1 (≈ 2.36 µM) | 8 (≈ 18.9 µM) | 16 (≈ 37.8 µM) | 2 (≈ 4.72 µM) | C[C@H](O)c1nccn1[C@@H](/C=C/c1ccc(-c2ccc(OC[C@@H](N)CO)cc2)cc1)CO (single isomer, unassigned) [Compound 10] |  |  |  | 
8 | 2 (≈ 4.31 µM) | 2 (≈ 4.31 µM) | 8 (≈ 17.3 µM) | 2 (≈ 4.31 µM) | C[C@H](O)c1nccn1[C@@H](/C=C/c1ccc(-c2ccc(C3C[C@H]3OCC(N)CO)cc2)cc1)CO (stereo partly drawn) [Compound 72, (2S,E)-4-(4′-((1S,2R)-2-(2-amino-3-hydroxypropoxy)cyclopropyl)-[1,1′-biphenyl]-4-yl)-2-(2-((S)-1-hydroxyethyl)-1H-imidazol-1-yl)but-3-en-1-ol] |  |  |  | 
9 | 4 (≈ 9.42 µM) | 8 (≈ 18.8 µM) | 16 (≈ 37.7 µM) | 4 (≈ 9.42 µM) | C[C@H](O)c1nccn1[C@@H](/C=C/c1ccc(-c2ccc(OC[C@H](O)CO)cc2)cc1)CO [Compound 23, (R)-3-((4′-((S,E)-4-hydroxy-3-(2-((S)-1-hydroxyethyl)-1H-imidazol-1-yl)but-1-en-1-yl)-[1,1′-biphenyl]-4-yl)oxy)propane-1,2-diol] |  |  |  | 
